Assay results from US20240324531A1, “METHOD TO INCREASE POLLEN FERTILITY” (Keygene N.V., priority 2021, published 2024).
Entries after “also recorded” stand apart in the source; their conditions may differ.

Tested on: anthers of B. rapa x B. oleracea cross (F1)
Assay: Opening of anthers after treating immature flower buds of the AC hybrid
Assay type: in vivo, Brassica rapa x Brassica oleracea interspecific hybrid
Details: 20 nM; F1 of this cross normally does not form open anthers
Description: Alternatively or in addition, preferably in the provided first seed plant, at least about 2%, 4%, 6%, 8%, 10%, 15%, 20%, 25%, 30%, 35%, 40%, 45%, 50%, 55%, 60%, 65%, 70%, 75%, 80%, 85%, 90%, 95% or 100% of the anthers remain closed upon pollen maturation. Preferably, less than about 95%, 90%, 85%, 80%, 75%, 70%, 65%, 60%, 55%, 50%, 45%, 40%, 35%, 30%, 25%, 20%, 15%, 10%, 8%, 6%, 4%, 2% or less than about 1% of the anthers open upon pollen maturation.

NC1=NC(=O)C(=Cc2ccc(O)cc2)S1 [Mirin, 2-Amino-5-[(4-hydroxyphenyl)methylene]-4(5H)-thiazolone]
opening of anthers: open anther; also recorded: opening of anthers
